Experimental data as given in patent US12391686B2, “Compounds and uses thereof” (Foghorn Therapeutics Inc., priority 2019, dated 2025).

How the values were obtained:
[1] = tested on: non-synovial control cancer cell lines (293T, A549, G401); experiment: Growth of non-synovial control cancer cell lines, Example 3; assay type: cell-based; settings: FIGS. 5, 6, 7
Method: (§1) Procedures: Cells were treated with DMSO or the BRD9 degrader, Compound 1, at indicated concentrations, and proliferation was monitored from day 7 to day 14 by measuring confluency over time using an IncuCyte live cell analysis system (FIG. 5). Growth medium and compounds were refreshed every 3-4 days.
(§2) Cells were seeded into 12-well plates and treated with DMSO, 1 μM BRD9 inhibitor, Compound 2 (also known as BI-7273, see Martin et al, J Med Chem. 59(10):4462-4475 (2016); see structure of Compound 2 below), or 1 μM BRD9 degrader, Compound 1.
(§3) The number of cells was optimized for each cell line. Growth medium and compounds were refreshed every 3-5 days. SYO1, Yamato, A549, 293T and HS-SY-II cells were fixed and stained at day 11. ASKA cells were fixed and stained at day 23. Staining was done by incubation with crystal violet solution (0.5 g Crystal Violet, 27 ml 37% Formaldehyde, 100 mL 10×PBS, 10 mL Methanol, 863 dH2O to 1 L) for 30 min followed by 3× washes with water and drying the plates for at least 24 h at room temperature. Subsequently plates were scanned on an Odyssey CLx Imaging system (FIG. 6).
(§4) Cells were seeded into 96-well ultra low cluster plate (Costar, #7007) in 200 μL complete media and treated at day 2 with DMSO, Staurosporin, or BRD9 degarder, Compound 1, at indicated doses (FIG. 7). Media and compounds were changed every 5 d and cell colonies were imaged at day 14.

[2] = tested on: synovial sarcoma cell lines (SYO1, HS-SY-II, and ASKA); experiment: Crystal violet growth assay in synovial sarcoma cell lines, Example 4; assay type: cell-based; settings: for inhibition of the growth of the cells: SYO1, HS-SY-II, ASKA, treated daily, day 14, FIG. 8
Method: (§5) Procedure: Cells were seeded into 6-well or 12-well plates and were treated daily with a BRD9 degrader (Compound 1), a bromo-domain BRD9 binder (Compound 2), E3 ligase binder (lenalidomide), DMSO, or staurosporin (positive control for cell killing), at indicated concentrations. The number of cells was optimized for each cell line. Growth media was refreshed every 5 days. By day 14, medium was removed, cells were washed with PBS, and stained using 500 μL of 0.005% (w/v) crystal violet solution in 25% (v/v) methanol for at least 1 hour at room temperature. Subsequently plates were scanned on an Odyssey CLx Imaging system.

[3] = tested on: synovial sarcoma cell lines (SYO1, Yamato, HS-SY-II, and ASKA); experiment: Growth of synovial sarcoma cell lines (IncuCyte confluency, crystal violet, colony imaging), Example 3; assay type: cell-based; settings: 1 μM or indicated doses, FIGS. 5, 6, 7
Method: as §1, §2, §3, §4

[4] = tested on: non-synovial control cancer cell lines (RD, HCT116, and Calu6); experiment: Crystal violet growth assay in non-synovial control cancer cell lines, Example 4; assay type: cell-based; settings: treated daily, day 14, FIG. 9
Method: as §5

[5] = biological target: T1, BRD9 bromodomain (Flag-BRD9 P133-K239; Swiss Prot Q9H8M2) (Homo sapiens, UniProt Q9H8M2); experiment: BRD9 Bromodomain TR-FRET Competition Binding Assay; settings: competition with biotinylated BRD9 ligand; 90 minutes at room temperature
T1 construct: His-Flag-BRD9 (P133-K239); Swiss Prot Q9H8M2; His6 with TEV site (mgsshhhhhhenlyfq/) (N, cleaved yes); made in house
T1 sequence (Q9H8M2 133-239): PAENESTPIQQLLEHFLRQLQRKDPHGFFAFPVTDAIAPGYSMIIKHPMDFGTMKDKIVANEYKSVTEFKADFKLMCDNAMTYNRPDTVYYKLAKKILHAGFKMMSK
Method in brief: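 Tag-cleaved Flag-BRD9 (P133-K239) at 3 nM final displacing 3.75 nM biotinylated ligand, with 7.5 nM APC-streptavidin and 0.2 nM Eu-anti-FLAG, in 50 mM HEPES pH 7.4, 50 mM NaCl, 1 mM TCEP, 0.01% Tween-20, 0.01% BSA. Read after 90 min at room temperature as 665/615 nm ratio.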

[6] = biological target: T2, Nanoluciferase-BRD9 fusion protein (3×FLAG-NLuc-BRD9) in SYO-1 cells (Homo sapiens, UniProt Q9H8M2); experiment: SYO1 BRD9 NanoLuc Degradation Assay; assay type: cell-based; settings: 6 hours; SYO-1 cells expressing 3×FLAG-NLuc-BRD9; top dose 1 μM; read-out: SYO1 BRD9-NanoLuc degradation IC50
T2 construct: expressed in transfected cells; host or cells: SYO-1
T2 sequence (Q9H8M2 1-597): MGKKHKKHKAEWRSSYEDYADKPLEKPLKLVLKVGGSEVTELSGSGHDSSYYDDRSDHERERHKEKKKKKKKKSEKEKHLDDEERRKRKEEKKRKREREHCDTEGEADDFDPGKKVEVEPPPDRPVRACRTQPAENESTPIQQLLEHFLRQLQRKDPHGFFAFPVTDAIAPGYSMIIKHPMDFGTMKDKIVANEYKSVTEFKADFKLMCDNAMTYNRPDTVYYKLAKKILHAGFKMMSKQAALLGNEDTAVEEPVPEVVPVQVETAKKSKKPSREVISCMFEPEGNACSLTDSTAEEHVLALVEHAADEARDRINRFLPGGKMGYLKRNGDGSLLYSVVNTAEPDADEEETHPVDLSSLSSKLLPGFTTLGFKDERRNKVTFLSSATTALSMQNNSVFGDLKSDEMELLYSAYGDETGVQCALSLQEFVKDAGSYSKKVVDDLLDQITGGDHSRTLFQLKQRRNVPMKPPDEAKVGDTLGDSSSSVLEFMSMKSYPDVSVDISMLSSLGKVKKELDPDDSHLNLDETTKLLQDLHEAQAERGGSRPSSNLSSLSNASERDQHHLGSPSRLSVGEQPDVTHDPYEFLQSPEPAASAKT
Method in brief: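 Stable 3×FLAG-NLuc-BRD9 SYO-1 line, 8000 cells/well, dosed day 1 with 10-point 3-fold dilutions (1 μM final top, duplicates) for 6 h. NanoLuc bioluminescence read with Nano-Glo; % inhibition relative to DMSO (high) and 1 μM reference BRD9 degrader (low) controls.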

SYO1 cells [7] = experiment: Apoptosis assay (Annexin V-FITC Apoptosis Detection Kit); assay type: cell-based; settings: 200 nM or 1 μM, 8 days, as compared to DMSO controls
Method: (§6) Procedure: SYO1 cells were treated for 8 or 13 days with DMSO, a BRD9 degrader (Compound 1) at 200 nM or 1 μM, or an E3 ligase binder (lenalidomide) at 200 nM. Compounds were refreshed every 5 days. Cell cycle analysis was performed using the Click-iT™ Plus EdU Flow Cytometry Assay (Invitrogen). The apoptosis assay was performed using the Annexin V-FITC Apoptosis Detection Kit (Sigma A9210). Assays were performed according to the manufacturer's protocol.

SYO1 cells [8] = experiment: Cell cycle analysis (Click-iT Plus EdU Flow Cytometry Assay); assay type: cell-based; settings: 200 nM or 1 μM, 8 or 13 days, as compared to DMSO and lenalidomide
Method: as §6

Row | SMILES | inhibition of the growth of the cells [1] | inhibition of the growth of the cells [2] | inhibition of the growth of the cells [3] | inhibition of the growth of the cells [4] | IC50 [5] [nM] | DC50 [6] [nM] | numbers of early- and late-apoptotic cells (SYO1 cells [7]) | growth inhibition compared with the other treatments ([2]; all synovial cell lines, versus Compound 2 and lenalidomide) | numbers of cells in the S-phase of the cell cycle (SYO1 cells [8])
1 | COc1cc(-c2cn(C)c(=O)c3cnccc23)cc(OC)c1CN(C)C [Compound 2] | does not result in inhibition of the growth | inhibition of the growth of the cells | inhibition of the growth of the cells | did not result in inhibition of the growth |  |  |  |  | 
2 | COc1cc(-c2cn(C)c(=O)c3cnc(N(C)C)cc23)cc(OC)c1CN1CCC2(CC1)CN(C(=O)CCCOc1cccc3c1C(=O)N(C1CCC(=O)NC1=O)C3=O)CCO2 (stereo not drawn) [Compound D18, 4-(4-(9-(4-(6-(dimethylamino)-2-methyl-1-oxo-1,2-dihydro-2,7-naphthyridin-4-yl)-2,6-dimethoxybenzyl)-1-oxa-4,9-diazaspiro[5.5]undecan-4-yl)-4-oxobutoxy)-2-(2,6-dioxopiperidin-3-yl)isoindoline-1,3-dione formic acid] |  |  |  |  | < 10 | < 10 |  |  | 
3 | COc1cc(-c2cn(C)c(=O)c3cnccc23)cc(OC)c1CN(C)CC(=O)NCCOCCOCCNc1cccc2c1C(=O)N(C1CCC(=O)NC1=O)C2=O (stereo not drawn) [Compound 1] | does not result in inhibition of the growth | inhibition of the growth of the cells | inhibition of the growth of the cells | did not result in inhibition of the growth |  |  | increased numbers of early- and late-apoptotic cells | most significant growth inhibition | reduced numbers of cells in the S-phase
4 | COc1cc(-c2cn(C)c(=O)c3cnc(N(C)C)cc23)cc(OC)c1CN1CCC(CCN2CCN(c3ccc4c(c3)C(=O)N(C3CCC(=O)NC3=O)C4=O)CC2)CC1 (stereo not drawn) [Compound D20, 5-(4-(2-(1-(4-(6-(dimethylamino)-2-methyl-1-oxo-1,2-dihydro-2,7-naphthyridin-4-yl)-2,6-dimethoxybenzyl)piperidin-4-yl)ethyl)piperazin-1-yl)-2-(2,6-dioxopiperidin-3-yl)isoindoline-1,3-dione formic acid] |  |  |  |  | < 10 | < 10 |  |  | 
